# Test results: ChEMBL document CHEMBL1148480, “Structure-activity studies of orexin a and orexin B at the human orexin 1 and orexin 2 receptors led to orexin 2 receptor selective and orexin 1 receptor preferring ligands” (J Med Chem, 2004)
# Non-standard residues stand in square brackets, D forms with d. Residues, ends and D or L forms follow the SMILES beside them. pGlu = O=C1CC[C@@H](C(=O)O)N1; Abu = CC[C@H](N)C(=O)O; Ahx = NCCCCCC(=O)O
# Biological target: T1, Orexin/Hypocretin receptor type 1 (Homo sapiens, UniProt O43613)
# T1 sequence (O43613 whole entry): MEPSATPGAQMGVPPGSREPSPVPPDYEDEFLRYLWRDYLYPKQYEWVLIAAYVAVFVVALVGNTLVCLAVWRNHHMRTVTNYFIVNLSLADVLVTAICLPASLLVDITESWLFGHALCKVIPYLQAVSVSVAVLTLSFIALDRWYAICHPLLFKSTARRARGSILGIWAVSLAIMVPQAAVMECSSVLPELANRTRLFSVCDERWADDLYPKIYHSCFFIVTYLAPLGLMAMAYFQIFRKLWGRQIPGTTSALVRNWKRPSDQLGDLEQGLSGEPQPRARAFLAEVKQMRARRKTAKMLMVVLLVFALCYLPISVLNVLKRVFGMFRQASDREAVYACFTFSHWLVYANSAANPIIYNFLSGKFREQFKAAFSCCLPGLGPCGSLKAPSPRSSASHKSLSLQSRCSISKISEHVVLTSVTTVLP
# Assay: Effective agonist concentration to human orexin receptor type 1 determined using the Xlfit program
# Assay type: functional
row,SMILES,EC50 [µM]
1,CC[C@H](C)[C@H](NC(=O)[C@H](C)NC(=O)[C@H](C)NC(=O)[C@H](C)NC(=O)[C@H](Cc1cnc[nH]1)NC(=O)[C@H](CC(N)=O)NC(=O)CNC(=O)[C@H](CO)NC(=O)[C@H](C)NC(=O)[C@H](CCC(N)=O)NC(=O)[C@H](CC(C)C)NC(=O)[C@H](CC(C)C)NC(=O)[C@H](CCCNC(=N)N)NC(=O)[C@H](CCC(N)=O)NC(=O)[C@H](CC(C)C)NC(=O)[C@H](CCCNC(=N)N)NC(=O)CNC(=O)[C@H](CCC(N)=O)NC(=O)[C@H](CC(C)C)NC(=O)CN)C(=O)N[C@@H](CC(C)C)C(=O)N[C@H](C(=O)N[C@@H](CCSC)C(=O)O)[C@@H](C)O (H-GLQGRLQRLLQASGNHAAAILTM-OH),> 1000
2,CC[C@H](C)[C@H](NC(=O)CNC(=O)[C@H](C)NC(=O)[C@H](C)NC(=O)[C@H](Cc1c[nH]cn1)NC(=O)[C@H](CC(N)=O)NC(=O)CNC(=O)[C@H](CO)NC(=O)[C@H](C)NC(=O)[C@H](CCC(N)=O)NC(=O)[C@H](CC(C)C)NC(=O)[C@@H]1CCCN1C(=O)[C@H](CCCN=C(N)N)NC(=O)[C@H](CCC(N)=O)NC(=O)[C@H](CC(C)C)NC(=O)[C@H](CCCN=C(N)N)NC(=O)CNC(=O)[C@H](CCC(N)=O)NC(=O)[C@H](CC(C)C)NC(=O)CN)C(=O)N[C@@H](CC(C)C)C(=O)N[C@H](C(=O)N[C@@H](CCSC)C(N)=O)[C@@H](C)O (H-GLQGRLQRPLQASGNHAAGILTM-NH2),> 1000
3,CC[C@H](C)[C@H](NC(=O)CNC(=O)[C@H](C)NC(=O)[C@H](C)NC(=O)[C@H](Cc1cnc[nH]1)NC(=O)[C@H](CC(N)=O)NC(=O)CNC(=O)[C@H](CO)NC(=O)[C@H](C)NC(=O)[C@H](CCC(N)=O)NC(=O)[C@H](CC(C)C)NC(=O)[C@H](CC(C)C)NC(=O)[C@H](CCCNC(=N)N)NC(=O)[C@H](CCC(N)=O)NC(=O)[C@@H]1CCCN1C(=O)[C@H](CCCNC(=N)N)NC(=O)CNC(=O)[C@H](CCC(N)=O)NC(=O)[C@H](CC(C)C)NC(=O)CN)C(=O)N[C@@H](CC(C)C)C(=O)N[C@H](C(=O)N[C@@H](CCSC)C(N)=O)[C@@H](C)O (H-GLQGRPQRLLQASGNHAAGILTM-NH2),> 1000
4,CC[C@H](C)[C@H](NC(=O)CNC(=O)[C@H](C)NC(=O)[C@H](C)NC(=O)[C@H](Cc1c[nH]cn1)NC(=O)[C@H](CC(N)=O)NC(=O)CNC(=O)[C@H](CO)NC(=O)[C@H](C)NC(=O)[C@H](CCC(N)=O)NC(=O)[C@H](CC(C)C)NC(=O)[C@H](CC(C)C)NC(=O)[C@H](CCCN=C(N)N)NC(=O)[C@H](CCC(N)=O)NC(=O)[C@H](CC(C)C)NC(=O)[C@H](CCCN=C(N)N)NC(=O)[C@@H]1CCCN1C(=O)[C@H](CCC(N)=O)NC(=O)[C@H](CC(C)C)NC(=O)CN)C(=O)N[C@@H](CC(C)C)C(=O)N[C@H](C(=O)N[C@@H](CCSC)C(N)=O)[C@@H](C)O (H-GLQPRLQRLLQASGNHAAGILTM-NH2),4.46
5,CC[C@H](C)[C@H](NC(=O)CNC(=O)[C@H](C)NC(=O)[C@H](C)NC(=O)[C@H](Cc1c[nH]cn1)NC(=O)[C@H](CC(N)=O)NC(=O)CN)C(=O)N[C@@H](CC(C)C)C(=O)N[C@H](C(=O)N[C@@H](CC(C)C)C(N)=O)[C@@H](C)O (H-GNHAAGILTL-NH2),> 1000
6,CC[C@H](C)[C@H](NC(=O)CNC(=O)[C@H](C)NC(=O)[C@H](C)NC(=O)[C@H](Cc1cnc[nH]1)NC(=O)[C@H](CC(N)=O)NC(=O)CNC(=O)[C@H](CO)NC(=O)[C@H](C)NC(=O)[C@H](CCC(N)=O)NC(=O)[C@H](CC(C)C)NC(=O)[C@H](CC(C)C)NC(=O)[C@H](CCCNC(=N)N)NC(=O)[C@H](CCC(N)=O)NC(=O)[C@H](CC(C)C)NC(=O)[C@H](CCCNC(=N)N)NC(=O)CNC(=O)[C@H](CCC(N)=O)NC(=O)[C@@H]1CCCN1C(=O)CN)C(=O)N[C@@H](CC(C)C)C(=O)N[C@H](C(=O)N[C@@H](CCSC)C(N)=O)[C@@H](C)O (H-GPQGRLQRLLQASGNHAAGILTM-NH2),1.7
7,CC[C@H](C)[C@H](NC(=O)CNC(=O)[C@H](C)NC(=O)[C@H](C)NC(=O)[C@@H](N)Cc1cnc[nH]1)C(=O)N[C@@H](CC(C)C)C(=O)N[C@H](C(=O)N[C@@H](CC(C)C)C(N)=O)[C@@H](C)O (H-HAAGILTL-NH2),> 1000
8,CC[C@H](C)[C@H](NC(=O)CNC(=O)[C@H](C)NC(=O)[C@H](C)NC(=O)[C@H](Cc1c[nH]cn1)NC(=O)[C@H](CC(N)=O)NC(=O)CNC(=O)[C@H](C)NC(=O)CNC(=O)[C@H](Cc1c[nH]cn1)NC(=O)[C@H](CC(C)C)NC(=O)[C@@H](N)CC(C)C)C(=O)N[C@@H](CC(C)C)C(=O)N[C@H](C(=O)N[C@@H](CC(C)C)C(N)=O)[C@@H](C)O (H-LLHGAGNHAAGILTL-NH2),> 1000
9,CC[C@H](C)[C@H](NC(=O)CNC(=O)[C@H](C)NC(=O)[C@H](C)NC(=O)[C@H](Cc1cnc[nH]1)NC(=O)[C@H](CC(N)=O)NC(=O)CNC(=O)[C@H](CO)NC(=O)[C@H](C)NC(=O)[C@H](CCC(N)=O)NC(=O)[C@H](CC(C)C)NC(=O)[C@@H](N)CC(C)C)C(=O)N[C@@H](CC(C)C)C(=O)N[C@H](C(=O)N[C@@H](CCSC)C(N)=O)[C@@H](C)O (H-LLQASGNHAAGILTM-NH2),> 1000
10,CC[C@H](C)[C@H](NC(=O)CNC(=O)[C@H](C)NC(=O)[C@H](C)NC(=O)[C@H](Cc1c[nH]cn1)NC(=O)[C@H](CC(N)=O)NC(=O)CNC(=O)[C@H](C)NC(=O)CNC(=O)[C@H](Cc1c[nH]cn1)NC(=O)[C@H](CC(C)C)NC(=O)[C@H](CC(C)C)NC(=O)[C@H](CCC(=O)O)NC(=O)[C@H](Cc1ccc(O)cc1)NC(=O)[C@H](CC(C)C)NC(=O)[C@H](CCCN=C(N)N)NC(=O)[C@H](CS)NC(=O)[C@H](CO)NC(=O)[C@H](CS)NC(=O)[C@@H](NC(=O)[C@H](CCCCN)NC(=O)[C@H](CCC(N)=O)NC(=O)[C@H](CCCN=C(N)N)NC(=O)[C@H](CS)NC(=O)[C@H](CS)NC(=O)[C@H](CC(=O)O)NC(=O)[C@@H]1CCCN1)[C@@H](C)O)C(=O)N[C@@H](CC(C)C)C(=O)N[C@H](C(=O)N[C@@H](CC(C)C)C(N)=O)[C@@H](C)O (H-PDCCRQKTCSCRLYELLHGAGNHAAGILTL-NH2),0.64
11,CC[C@H](C)[C@H](NC(=O)CNC(=O)[C@H](C)NC(=O)[C@H](C)NC(=O)[C@H](Cc1cnc[nH]1)NC(=O)[C@H](CC(N)=O)NC(=O)CNC(=O)[C@H](CO)NC(=O)[C@H](C)NC(=O)[C@H](CCC(N)=O)NC(=O)[C@H](CC(C)C)NC(=O)[C@H](CC(C)C)NC(=O)[C@H](CCCNC(=N)N)NC(=O)[C@H](CCC(N)=O)NC(=O)[C@H](CC(C)C)NC(=O)[C@H](CCCNC(=N)N)NC(=O)CNC(=O)[C@@H](N)CCC(N)=O)C(=O)N[C@@H](CC(C)C)C(=O)N[C@H](C(=O)N[C@@H](CCSC)C(N)=O)[C@@H](C)O (H-QGRLQRLLQASGNHAAGILTM-NH2),22.2
12,CC[C@H](NC(=O)[C@H](CO)NC(=O)[C@H](CS)NC(=O)[C@@H](NC(=O)[C@H](CCCCN)NC(=O)[C@H](CCC(N)=O)NC(=O)[C@H](CCCN=C(N)N)NC(=O)[C@H](CC)NC(=O)[C@H](CS)NC(=O)[C@H](CC(=O)O)NC(=O)[C@@H]1CCCN1C(=O)[C@H](CC(C)C)NC(=O)[C@@H]1CCCN1C(=O)[C@@H]1CCC(=O)N1)[C@@H](C)O)C(=O)N[C@@H](CCCN=C(N)N)C(=O)N[C@@H](CC(C)C)C(=O)N[C@@H](Cc1ccc(O)cc1)C(=O)N[C@@H](CCC(=O)O)C(=O)N[C@@H](CC(C)C)C(=O)N[C@@H](CC(C)C)C(=O)N[C@@H](Cc1c[nH]cn1)C(=O)NCC(=O)N[C@@H](C)C(=O)NCC(=O)N[C@@H](CC(N)=O)C(=O)N[C@@H](Cc1c[nH]cn1)C(=O)N[C@@H](C)C(=O)N[C@@H](C)C(=O)NCC(=O)N[C@H](C(=O)N[C@@H](CC(C)C)C(=O)N[C@H](C(=O)N[C@@H](CC(C)C)C(=O)O)[C@@H](C)O)[C@@H](C)CC ([pGlu]PLPDC[Abu]RQKTCS[Abu]RLYELLHGAGNHAAGILTL-OH),1.34
13,CC[C@H](C)[C@H](NC(=O)CNC(=O)[C@H](C)NC(=O)[C@H](C)NC(=O)[C@H](Cc1c[nH]cn1)NC(=O)[C@H](CC(N)=O)NC(=O)CNC(=O)[C@H](C)NC(=O)CNC(=O)[C@H](Cc1c[nH]cn1)NC(=O)[C@H](CC(C)C)NC(=O)[C@H](CC(C)C)NC(=O)CCCCCNC(=O)[C@H](CC(=O)O)NC(=O)[C@@H]1CCCN1C(=O)[C@H](CC(C)C)NC(=O)[C@@H]1CCCN1C(=O)[C@@H]1CCC(=O)N1)C(=O)N[C@@H](CC(C)C)C(=O)N[C@H](C(=O)N[C@@H](CC(C)C)C(=O)O)[C@@H](C)O ([pGlu]PLPD[Ahx]LLHGAGNHAAGILTL-OH),> 1000
14,CC[C@H](C)[C@H](NC(=O)CNC(=O)[C@H](C)NC(=O)[C@H](C)NC(=O)[C@H](Cc1cnc[nH]1)NC(=O)[C@H](CC(N)=O)NC(=O)CNC(=O)[C@H](C)NC(=O)CNC(=O)[C@H](Cc1cnc[nH]1)NC(=O)[C@H](CC(C)C)NC(=O)[C@H](CC(C)C)NC(=O)[C@H](CCC(=O)O)NC(=O)[C@H](Cc1ccc(O)cc1)NC(=O)[C@H](CC(C)C)NC(=O)[C@H](CCCNC(=N)N)NC(=O)CCCCCNC(=O)[C@H](CC(=O)O)NC(=O)[C@@H]1CCCN1C(=O)[C@H](CC(C)C)NC(=O)[C@@H]1CCCN1C(=O)[C@@H]1CCC(=O)N1)C(=O)N[C@@H](CC(C)C)C(=O)N[C@H](C(=O)N[C@@H](CC(C)C)C(=O)O)[C@@H](C)O ([pGlu]PLPD[Ahx]RLYELLHGAGNHAAGILTL-OH),5.52
15,CC[C@H](C)[C@H](NC(=O)CNC(=O)[C@H](C)NC(=O)[C@H](C)NC(=O)[C@H](Cc1c[nH]cn1)NC(=O)[C@H](CC(N)=O)NC(=O)CNC(=O)[C@H](CO)NC(=O)[C@H](C)NC(=O)[C@H](CCC(N)=O)NC(=O)[C@H](CC(C)C)NC(=O)[C@H](CC(C)C)NC(=O)[C@H](CCCN=C(N)N)NC(=O)[C@@H]1CCCN1C(=O)[C@H](CC(C)C)NC(=O)[C@H](CCCN=C(N)N)NC(=O)CNC(=O)[C@H](CCC(N)=O)NC(=O)[C@H](CC(C)C)NC(=O)CN)C(=O)N[C@@H](CC(C)C)C(=O)N[C@H](C(=O)N[C@@H](CCSC)C(N)=O)[C@@H](C)O (stereo in doubt; form 1),5.26
